Results as given in patent US20100168112A1, “2-Substituted and 4-substituted aryl nitrone compounds” (RENOVIS, INC., priority 2004, published 2010).

Tested on: 1K1C rats
Test: Kidney ischemia-reperfusion injury, one-kidney one-clip (1K1C) model, fractional excretion of sodium
Assay type: in vivo
Procedure: Rats were individually housed in a modified cage that was equipped with a raised mesh bottom to separate the fecal product from urine. Before the test, all animals were withheld from food and water overnight. In the morning of the test, normal saline (i.e., 0.9% sodium chloride) was given via oral gavage at […] (Lipschitz, W. L. Hadidian, Z. & Kerpcar, A.: Bioassay of diuretics., J. Pharmacol. Exp. Ther., 79: 97-110, 1943). Samples of blood and urine were collected (standard procedures) at time points (1 and/or 5 hrs after fluid intake) from animals, centrifuged, and kept at 4 degrees until analysis for factors that reflect renal functions. Sodium and creatinine levels were determined by Quality Clinical Labs, Inc. (Mountain View, Calif.). Sodium concentrations were determined by ion selective electrode (standard procedures). Creatinine levels were determined by the alkaline picrated (Jaffe) reaction as described (Liobat-Estelles, M., Sevillano-Cabeja, A. & Campines-Falco, P.: Kinetic chemometric studies of the determination of creatinine using the Jaffe reaction. Part I: kinetics of the reaction; analytical conclusion. Analyst, 11: 597-602, 1989). Fractional excretion of sodium (FENa+), a parameter for ion-handling by the kidney, was calculated, using the following equation: =UNa×Pcr/PNa×Ucr, where UNa is the concentration of sodium in urine; Pcr is the plasma concentration of creatinine; PNa is the […]; and Ucr is the concentration of creatinine in the urine.
After the data for the calculation of basal levels of FENa+ was obtained (Table 16), rats were anesthetized with pentobarbital (65 mg/kg, i.p.). The abdominal region was shaved with a safety razor and sterilized with povidone iodine solution. A midline incision was made and the right kidney was exposed. The right renal pedicle and right urether were both ligated twice with 4-0 sutures and cut between the ligations. The right kidney was then removed. 7 days later, these rats, after another overnight food-water deprivation, were randomly assigned into 3 groups and orally given either Compound 62 (50 mg/kg, at the volume of 1 ml/kg,p.o.) or its vehicle (i.e., 96% of 0.5% CMC and 4 of 20% Tween 80, at the volume of 1 ml/kg, p.o.) 1 hr before kidney ischemia was produced. Positive controls were performed using quercetin (30 mg/kg, i.p.) given 2 hrs before ischemia (Kahraman, A., Erkasap, N., Serteser, M. & Koken, T.: Protective effect of quercetin on renal ischemia/reperfusion injury in rats. J. Nephrol., 16: 219-224, 2003). Animals were then anesthetized and had their left kidneys exposed after opening of their abdominal cavities. A non-traumatic vascular clamp was applied to the left renal pedicle (the ischemia phase), which was released 45 min later (the reperfusion phase). Lipschitz test was then conducted to measure ion-handling capabilities. Normal saline was orally administered at […] as soon as the vascular clamp was released. 60- and 300-min after reperfusion, plasma and urine samples were obtained.

[1] = 1K1C rats, Compound 62 50 mg/kg p.o. 1 hr before ischemia, quercetin 30 mg/kg i.p. 2 hrs before, 45 min ischemia, mean ± SEM

CC(C)(C)/[N+]([O-])=C/c1ccc(S(C)(=O)=O)cc1 [Compound 62, N-tert-Butyl-C-[4-(methanesulfonyl)phenyl]nitrone]
effect on FENa+ compared with the vehicle treatment group (in words) (1K1C rats, 50 mg/kg p.o., acutely dosed): significantly enhanced FENa+ 5-hr after reperfusion
1-hr post-ischemic FENa+ (%) [1]: 0.52 ± 0.29%
5-hr post-ischemic FENa+ (%) [1]: 2.52 ± 0.5%
FENa+ (%) pre-surgery (basal) levels (rats before 1K1C modeling, group baseline, mean ± SEM): 1.71 ± 0.36%
